Drawing on ChEMBL document CHEMBL5537108, “A comprehensive review on the global efforts on vaccines and repurposed drugs for combating COVID-19” (Eur J Med Chem, 2023), this text covers EC50 for seven compounds.

What all share (type): functional, organism-based
Test [1] concerns Ebolavirus. Put plainly: Antiviral activity against Ebola virus infected in African green monkey Vero cells incubated for 3 days by immunofocus assay. As to conditions: Orthoebolavirus, 72 h.
The subject of test [2] is SARS-CoV-2. Put plainly: Antiviral activity against SARS-CoV-2 infected in African green monkey Vero cells assessed as reduction in virus-induced cytopathic effect incubated for 5 days by microscopic analysis. Particulars: Severe acute respiratory syndrome coronavirus 2, Vero, 120 h.
In test [3] the test system is SARS-CoV-2. The experiment in a line: Antiviral activity against SARS-CoV-2 B.1.1.7 infected in human Calu-3 cells assessed as inhibition of viral infection measured after 48 hrs by Hoechst 33342 staining based analysis. Particulars: Severe acute respiratory syndrome coronavirus 2, B.1.1.7, Calu-3, 48 h.
For test [4], the system named is Ebolavirus. Put plainly: Antiviral activity against EBOV infected in human Huh-7 cells assessed as reduction in viral replication. Particulars: Orthoebolavirus.
The subject of test [5] is Middle East respiratory syndrome-related coronavirus. Put plainly: Antiviral activity against MERS-CoV infected in human Calu-3 cells assessed as inhibition of viral growth by infection assay.
In test [6] the test system is SARS-CoV-2. The experiment in a line: Antiviral activity against SARS-CoV-2 NRC-03-nhCoV infected in african green monkey Vero E6 cells assessed as inhibition of virus-induced cytopathic effect measured after 72 hrs by crystal violet staining based assay. Particulars: Severe acute respiratory syndrome coronavirus 2, NRC-03-nhCoV, Vero C1008, 72 h. (Protection from cytopathic effect is a common read-out in antiviral testing.)

Test [7] relates to SARS-CoV-2. The experiment in a line: Antiviral activity against SARS-CoV-2 infected in African green monkey Vero cells assessed as reduction in viral replication measured after 72 hrs by qRT-PCR analysis. As to conditions: Severe acute respiratory syndrome coronavirus 2, Vero. Background: In qPCR the cycle at which signal appears reflects the starting amount.
In test [8] the test system is Middle East respiratory syndrome-related coronavirus. The experiment in a line: Antiviral activity against MERS-CoV infected in african green monkey Vero E6. Particulars: Vero C1008.

SMILES strings stand for the structures. Where a name gives a salt, the structure may show the parent alone.

A word on the EC50: it is the concentration needed to bring the measured effect to its halfway point.

Take `CCC(CC)COC(=O)[C@H](C)N[P@](=O)(OC[C@H]1O[C@@](C#N)(c2ccc3c(N)ncnn23)[C@H](O)[C@@H]1O)Oc1ccccc1`: the EC50 is 0.77 µM with Ebolavirus [1], 0.01 µM in the test on SARS-CoV-2 [2], 67 µM in the test on SARS-CoV-2 [3] and 61.9 µM in the test with Ebolavirus [4].

`CN(C)C(=O)COC(=O)Cc1ccc(OC(=O)c2ccc(NC(=N)N)cc2)cc1` [CAMOSTAT]: the EC50 in test [5] amounted to 0.005 µM.

As for `Cc1nc(Nc2ncc(C(=O)Nc3c(C)cccc3Cl)s2)cc(N2CCN(CCO)CC2)n1` [DASATINIB ANHYDROUS], the EC50 in the test on SARS-CoV-2 [6] is 2.1 µM.

Regarding `Cc1cccc(C)c1OCC(=O)N[C@@H](Cc1ccccc1)[C@@H](O)C[C@H](Cc1ccccc1)NC(=O)[C@H](C(C)C)N1CCCNC1=O` [LOPINAVIR], the EC50 in the test on SARS-CoV-2 [7] stood at 5.73 µM.

With `N=C(N)Nc1ccc(C(=O)Oc2ccc3cc(C(=N)N)ccc3c2)cc1` [NAFAMOSTAT MESYLATE], the EC50 in test [5] was 0.087 µM.

As to `CC(C)c1nc(CN(C)C(=O)N[C@H](C(=O)N[C@@H](Cc2ccccc2)C[C@H](O)[C@H](Cc2ccccc2)NC(=O)OCc2cncs2)C(C)C)cs1` [RITONAVIR], the EC50 in the test on SARS-CoV-2 [7] was 8.63 µM.

Compound `CN1CCN(CCOc2cc(OC3CCOCC3)c3c(Nc4c(Cl)ccc5c4OCO5)ncnc3c2)CC1` [SARACATINIB] yielded an EC50 in test [8] of 10 µM.
